Source: PMC9295539 (Antimicrobial Agents and Chemotherapy, 2022)
“Also recorded” adds a separate entry of the source. Read-outs that look alike come from different tables or passages of the source.

Columns and labels:
[1] = system: Giardia lamblia GS clone H7; assay: G. lamblia GS clone H7 trophozoite growth, ATP-based bioluminescence assay (BacTiter-Glo), 1,536-well; type: cell-based; details: for Selectivity index (CC50/EC50): HEK293T CC50 / G. lamblia GS clone H7 EC50
Protocol: (§1) Compounds were screened at 5 μM with metronidazole (40 μM) as an inhibitor control and dimethyl sulfoxide (DMSO) as a neutral control. […] These primary hits were immediately assayed for reconfirmation and mammalian cytotoxicity against HEK293T cells in an 8-point dose-response format.
The primary screen was conducted at 5 μM. […] All source plates were 384-well acoustic, transfer-compatible plates with compounds prediluted in DMSO at either 2 mM or 10 mM. […] Primary screening was done with a single replicate, whereas dose-response testing was carried out in triplicate.
To prevent attachment to the bottle and tubing of the dispenser cassette, the bottle containing the culture was kept on ice throughout the dispensing process. […] The bags were heat sealed and the anaerobic generator was activated according to the manufacturer’s instructions. […] Luminescence was read on a ViewLux uHTS microplate imager (PerkinElmer) with medium-sensitivity luminescence at 30 s of exposure.
(§2) Relative luminescence unit (RLU) values were analyzed in Genedata Screener (v13.0-Standard). RLU values were normalized to neutral controls minus inhibitors (DMSO-treated wells minus metronidazole-treated wells). For single-point primary assay plates, an additional run-wise median correction was applied to reduce screen artifacts, whereas no corrections were applied to triplicate dose-response plates. For the mammalian cytotoxicity assays, RLU values were uploaded into Genedata Screener, and the data were normalized to those for DMSO-treated wells minus puromycin-treated wells.

[2] = HEK293T cytotoxicity counterscreen, luminescent ATP viability assay; details: human
Protocol: as §1
(§3) Experimental details for the assays were described previously ([50]). […] Assays were performed as previously reported ([51]).
as §2

[3] = system: G. lamblia WB6 (assemblage A); assay: G. lamblia WB6 cell growth inhibition assay; type: cell-based; details: Giardia duodenalis, read-out: EC50 against G. lamblia strain WB6
[4] = system: metronidazole-resistant 713-M3 strain; assay: Metronidazole-resistant G. lamblia 713-M3 cell growth inhibition assay; type: cell-based; details: Giardia duodenalis, read-out: EC50 against G. lamblia strain 713-M3
[5] = CRL-8155 cytotoxicity, resazurin-based viability assay; type: cell-based; details: human, CRL-8155 lymphocytic cells; read-out: CC50 against CRL-8155 cells
Protocol: as §3

[6] = HepG2 cytotoxicity, resazurin-based viability assay; type: cell-based; details: human, HepG2 cells; read-out: CC50 against HepG2 cells
Protocol: as §3

G. lamblia CBG99 = details: mice
Protocol: The method relies on a stable constitutive reporter, CBG99, that correlates with total parasite load.
(§4) In vitro reconfirmation and expanded tests against EGFR-TKIs using the G. lamblia CBG99 strain were performed as previously described ([11]). […] The PK studies were performed in groups of 3 mice per compound. […] All animal experiments were approved by the Institutional Animal Care and Use Committees at the University of Washington.

[7] = Mouse pharmacokinetics, oral gavage, plasma LC-MS/MS; type: in vivo; details: for half-life: read-out: average half-life (t1/2); for plasma level: 1 mg/kg QD
[8] = Clinical evaluation of overall health of mice in PK and efficacy studies; details: all mice used for in vivo PK and efficacy studies
[9] = Allometric scaling of efficacious mouse doses to human-equivalent dose; details: 150 mg human dose (2.6 to 1.9 mg/kg) versus predicted human efficacious dose
Protocol: Its chemical synthesis and safety profiles and a partial analysis of its pharmacokinetic properties have been described previously ([18], [43]). […] Given that the average adult weight worldwide ranges from 57.7 kg in Asia to 80.7 kg in North America ([46]), a 150 mg dose equates to 2.6 to 1.9 mg/kg. […]. This leaves a possible safety window of 4.6 to 13 times the efficacious dose, depending on the dose needed and the weight of the adult patient. Since the equivalent human efficacious dose (based on the murine efficacy data) is below the clinical trial threshold and the drug may not necessitate more than 7 daily doses, it could be speculated that all previously obtained good laboratory practices (GLP) toxicological data associated with the Phase I clinical trials remain relevant and may not need to be repeated. […] Reduced cost of development should have a direct impact on the cost of goods for the target population. This is certainly true for G. lamblia.

[10] = set-up: method as in doi:10.1016/j.jtho.2016.11.1668; details: adults; >150 mg daily oral doses over 7 days; cited from earlier work
HEK293T cells = assay: in vitro
Protocol: as §1, §3, §2

[11] = system: G. lamblia CBG99 (assemblage A); assay: G. lamblia CBG99 luciferase strain cell growth inhibition assay; type: cell-based, Giardia lamblia; details: for EC50 / inhibition at 5 µM: Giardia duodenalis; for EC50: assemblage A, read-out: EC50 against G. lamblia strain CBG99; for inhibition at 5 µM / inhibition of G. lamblia growth: G. lamblia CBG99, compound at 5 μM
Protocol: Subsequent assays, including the mouse model of infection, used the G. lamblia click beetle green (CBG99) strain, which was grown and assayed as previously described ([11], [49]).
as §4

[12] = Giardia duodenalis, 48 h, 8-point dose response, triplicate, read-out: 48-h Giardia GS clone H7 EC50
[13] = Giardia duodenalis, Table 2, assemblage B, read-out: EC50 against G. lamblia strain GS clone 7
[14] = mouse, single oral dose 5 mg/kg
[15] = mouse, single oral dose 20 mg/kg
[16] = mouse, single oral dose 50 mg/kg
[17] = 48 h, 8-point dose response, triplicate, read-out: 48-h Giardia GS clone H7 EC50

C=CC(=O)N[C@@H]1CN(c2nc(Nc3cn(C)nc3OC)c3ncn(C)c3n2)C[C@H]1F [Mavelertinib, N-((3R,4R)-4-fluoro-1–(6-((3-methoxy-1-methyl-1H-pyrazol-4-yl)amino)-9-methyl-9H-purin-2-yl)pyrrolidine-3-yl)acrylamide]
EC50 [1, 12]: 2.34 ± 0.08 µM
EC50 [1, 13]: 2.34 ± 0.08 µM
CC50 at 72 h ([2]; HEK293T cells): > 25 µM
EC50 ([3]; assemblage A): 0.27 ± 0.17 µM
EC50 [4]: 0.07 ± 0.02 µM
CC50 [5]: > 80 µM
CC50 [6]: > 80 µM
clearance of infection (luminescence signal) (G. lamblia CBG99; 2.5 mg/kg QD for 2 days): one of four mice remained infected
clearance of infection (luminescence signal) (G. lamblia CBG99; 5 mg/kg QD for 2 days, 5 mg/kg): cleared the infection below the background signal
clearance of infection (luminescence signal) (G. lamblia CBG99; 5 mg/kg QD for 2 days, listed as mavelertinib, 5 mg/kg): absence of luminescence signal
clearance of infection (luminescence signal) (G. lamblia CBG99; 20 mg/kg QD for 2 days, 20 mg/kg): cleared the infection below the background signal
clearance of infection (luminescence signal) (G. lamblia CBG99; 20 mg/kg QD for 2 days, listed as mavelertinib, 20 mg/kg): absence of luminescence signal
clearance of infection (luminescence signal) (G. lamblia CBG99; 50 mg/kg QD for 1 day, dose-response experiment, 50 mg/kg): cleared the infection below the background signal
clearance of infection (luminescence signal) (G. lamblia CBG99; 50 mg/kg QD for 1 day, dose-response experiment, listed as mavelertinib, 50 mg/kg): absence of luminescence signal
clearance of infection (G. lamblia CBG99; 50 mg/kg QD for 3 days, data not shown): appeared to clear the infection
clearance of infection (G. lamblia CBG99; 50 mg/kg QD, 1- and 2-day dosing, remained clear a week after dosing): all treated mice were cleared of infection
parasite rebound after treatment (G. lamblia CBG99; about 1 week after the last therapeutic dose): parasites did not rebound
half-life ([7]; in vivo, mouse, single oral dose 5 mg/kg): 3.99 h
plasma trough levels ([7]; infected mice, all treatment groups, days 6 and 7 postinfection (24 h and 48 h after the first dose)): below the limit of quantitation
plasma level ([7]; mouse, 0.5 h postdose, one mouse): barely detectable
plasma level ([7]; mouse, all time points after 0.5 h): below the limit of detection
plasma level ([7]; mouse, all time points sampled (Fig. 4 legend)): barely detectable
time at which Cmax was observed (Tmax) ([7]; mouse, oral, in all cases (all doses)): 0.5 h
plasma concentration at 24 h postdose ([7]; mouse, single dose, all dosage groups): cleared from plasma; also recorded: below the detection limit
area under the curve (AUC) [7, 14]: 89 µmol·min/L
clearance [7, 14]: 0.015 L/min
area under the curve (AUC) [7, 15]: 300 µmol·min/L
clearance [7, 15]: 0.004 L/min
area under the curve (AUC) [7, 16]: 812 µmol·min/L
clearance [7, 16]: 0.0016 L/min
Cmax ([7]; plasma, mouse, single oral dose 5 mg/kg, read-out: maximum plasma concentration (Cmax)): 0.63 µM
half-life ([7]; plasma, mouse, single oral dose 20 mg/kg): 2.91 h
Cmax ([7]; plasma, mouse, single oral dose 20 mg/kg, read-out: maximum plasma concentration (Cmax)): 3.5 µM
half-life ([7]; plasma, mouse, single oral dose 50 mg/kg): 2.09 h
Cmax ([7]; plasma, mouse, single oral dose 50 mg/kg, read-out: average maximum plasma concentration (Cmax)): 9.3 µM
observable toxicity [8]: no observable mavelertinib-induced toxicology potentials
possible safety window [9]: 4.6 to 13 times the efficacious dose
most common adverse events [10]: diarrhea and skin toxicities

CCOC(=O)/C(=C/c1ncc([N+](=O)[O-])n1C)C(C)=O [Propenidazole]
EC50 [1, 17]: 2.55 ± 0.04 µM
CC50 (HEK293T cells): 16.9 ± 0.05 µM

Cc1ncc([N+](=O)[O-])n1CCO [Metronidazole]
EC50 [1, 12]: 7.12 ± 0.06 µM
EC50 [1, 13]: 7.12 ± 0.06 µM
Selectivity index (CC50/EC50) [1]: >3
CC50 at 72 h [2]: > 25 µM
EC50 ([3]; assemblage A): 2.33 ± 0.06 µM
EC50 [11]: 2.87 ± 0.34 µM
EC50 [4]: > 25 µM

CC(=O)C[C@H]1CCCCN1 [Pelletierine]
EC50 [1, 12]: 20.3 ± 0.07 µM
EC50 [1, 13]: 20.3 ± 0.07 µM
Selectivity index (CC50/EC50) [1]: >1
CC50 [2]: > 25 µM
EC50 [3]: > 25 µM
EC50 [11]: > 25 µM
EC50 [4]: > 25 µM

CS(=O)(=O)CCNCc1ccc(-c2ccc3ncnc(Nc4ccc(OCc5cccc(F)c5)c(Cl)c4)c3c2)o1 [lapatinib ditosylate]
inhibition at 5 µM [11]: ≤ 50%

C=CC(=O)Nc1cccc(Oc2nc(Nc3ccc(N4CCN(C)CC4)c(F)c3)nc3[nH]ccc23)c1.O=C(O)/C=C\C(=O)O [avitinib maleate]
inhibition of G. lamblia growth [11]: ≤ 50%

Cn1c([N+](=O)[O-])cnc1C(O)c1cc(C(C)(C)C)ccc1O (stereo not drawn) [Abunidazole]
EC50 [1, 17]: 1.08 ± 0.02 µM
CC50 (HEK293T cells): > 25 µM

CNC(=O)CN1CCC(Oc2cc3c(Nc4cccc(Cl)c4F)ncnc3cc2OC)CC1 [AZD8931]
inhibition at 5 µM [11]: ≤ 50%

COc1cc2ncnc(Nc3cccc(Br)c3)c2cc1OC.Cl [PD153035-HCl]
inhibition of G. lamblia growth [11]: ≤ 50%
